# US20170056504A1, “METHOD OF EXTENDING HALF-LIFE OF CRYSTALINE ANTIBODIES” (priority 2015, published 2017)
# Assays:
# [1] = Lactulose with antibiotics cocktail: xPCSK9 mAb serum half-life and large intestine pH; type: in vivo, C57BL6 mice; conditions: with antibiotics cocktail in drinking water
# Experimental: At Day 0, anti-PCSK9-mAb was systemically administrated (30 mg/kg in PBS, i.v.) to the FcRn gene knockout mice or their wild type C57BL/6 mice (8 w old male). Lactulose (30%, water solution) was orally administered using a Popper's feeding needle once in a day throughout the experiment. In some experiment, groups of mice received antibiotics cocktail (Ampicillin, 2 mg/ml; Vancomycin, 1 mg/ml, Metronidazole 2 mg/ml and Neomycin, 2 mg/ml) ad libitum for 7 days. Blood was collected from mice at Day 1 and Day 7 (100 ul/mouse) by retro-orbital bleeding. The serum was separated from the collected blood and saved at −70 C until the measurement of anti-PCSK9-mAb as well as low-density lipoprotein (LDL) cholesterol in the sampled serum. At Day 7, right after the collection of blood, mice were sacrificed, and liver, small intestine (distal portion, 2 cm above cecum) and large intestine (proximal colon, 1 cm below cecum) were collected. […] The amount of LDL/VLDL in the serum was monitored using a HDL and LDL/VLDL Quantitation Kit (Sigma-Aldrich). The amount of anti-PCSK9-mAb in serum, liver, small and large intestines were measured using the ELISA as described above #1. […] In FIG. 11B, content of large intestine sampled from sacrificed mice was suspended in water (0.1 g/1 ml) and the pH was monitored.
# [2] = test system: Substance P and nerve growth factor (NGF); experiment: Pregabalin-mediated suppression of pain associated factors with lactulose-generated hydrogen; type: in vivo; conditions: hydrogen generated by lactulose, mice
# [3] = biological target: PCSK9 (Mus musculus, UniProt Q80W65); experiment: LDL level in blood serum of mice that received xPCSK9 mAb and/or lactulose; type: in vivo, C57BL6 mice; set-up: endogenous in cells; host or cells: C57BL6 mice, in vivo (circulating PCSK9 of the animal); conditions: oral lactulose alone without xPCSK9 mAb, Day 7
# Experimental: At Day 0, anti-PCSK9-mAb was systemically administrated (30 mg/kg in PBS, i.v.) to the FcRn gene knockout mice or their wild type C57BL/6 mice (8 w old male). Lactulose (30%, water solution) was orally administered using a Popper's feeding needle once in a day throughout the experiment. In some experiment, groups of mice received antibiotics cocktail (Ampicillin, 2 mg/ml; Vancomycin, 1 mg/ml, Metronidazole 2 mg/ml and Neomycin, 2 mg/ml) ad libitum for 7 days. Blood was collected from mice at Day 1 and Day 7 (100 ul/mouse) by retro-orbital bleeding. The serum was separated from the collected blood and saved at −70 C until the measurement of anti-PCSK9-mAb as well as low-density lipoprotein (LDL) cholesterol in the sampled serum. […] The amount of LDL/VLDL in the serum was monitored using a HDL and LDL/VLDL Quantitation Kit (Sigma-Aldrich). The amount of anti-PCSK9-mAb in serum, liver, small and large intestines were measured using the ELISA as described above #1. […]
# From Day-0 to Day 7, Lactulose (50% water solution, 0.2 ml/mouse) or control water (0.2 ml/mouse) was orally administered once/day. […] At Day 0, prior to any administrations, and Day 7, blood serum was collected and the concentration of LDL was monitored using LDL detection kit (Sigma).
# [4] = Mouse model of high fat diet induced hyperlipidemia (another study); type: in vivo
# PCSK9, sequence (Q80W65 156-694): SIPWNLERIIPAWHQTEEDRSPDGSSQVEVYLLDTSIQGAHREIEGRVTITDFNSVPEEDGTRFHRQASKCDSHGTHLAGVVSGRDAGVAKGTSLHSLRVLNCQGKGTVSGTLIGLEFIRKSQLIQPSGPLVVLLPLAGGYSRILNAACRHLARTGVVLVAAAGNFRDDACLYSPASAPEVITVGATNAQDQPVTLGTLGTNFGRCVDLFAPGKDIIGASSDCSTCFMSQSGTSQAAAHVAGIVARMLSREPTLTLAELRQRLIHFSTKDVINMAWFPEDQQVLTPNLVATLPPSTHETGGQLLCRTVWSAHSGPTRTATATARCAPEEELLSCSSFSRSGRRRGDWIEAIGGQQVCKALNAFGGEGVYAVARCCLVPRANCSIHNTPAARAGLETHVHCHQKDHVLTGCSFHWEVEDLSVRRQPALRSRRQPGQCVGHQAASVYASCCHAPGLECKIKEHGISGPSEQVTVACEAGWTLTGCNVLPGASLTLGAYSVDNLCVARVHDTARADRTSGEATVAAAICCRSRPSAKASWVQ
smiles,measurement,setting,value
OC[C@H]1O[C@@H](O[C@@H]2[C@@H](CO)OC(O)(CO)[C@H]2O)[C@H](O)[C@@H](O)[C@H]1O (mixture of isomers) [lactulose],effect of lactulose on extending the serum half-life of xPCSK9 mAb,[1],abolished
same,effect on pregabalin-mediated suppression of Substance P and NGF,[2],additive effect
same,LDL level in blood serum versus base line (Day 0),[3],did not show any changes from the base line level
same,oxidized LDL (oxLDL),[4],can suppress
